We go through 3 molecules from ChEMBL document CHEMBL4665643 (Bioorg Med Chem Lett, 2019).

A word on the inhibition: it is the drop in the measured response relative to a control, in per cent. Broadly, the IC50 is the midpoint of a concentration-inhibition curve.

The target in assay [1] is Cyclin-dependent kinase 1/cyclin B1 (Homo sapiens) (UniProt P06493+P14635). The assay can be described thus: Inhibition of recombinant human His-tagged full length CDK1/Cyclin B expressed in baculovirus expression system using Ser/Thr 18 as substrate at 0.1 uM incubated for 60 mins by Z'-Lyte assay relative to control.
Chain of Cyclin-dependent kinase 1/cyclin B1 (Homo sapiens) (P06493 whole entry, looked up, the tested form may be a part): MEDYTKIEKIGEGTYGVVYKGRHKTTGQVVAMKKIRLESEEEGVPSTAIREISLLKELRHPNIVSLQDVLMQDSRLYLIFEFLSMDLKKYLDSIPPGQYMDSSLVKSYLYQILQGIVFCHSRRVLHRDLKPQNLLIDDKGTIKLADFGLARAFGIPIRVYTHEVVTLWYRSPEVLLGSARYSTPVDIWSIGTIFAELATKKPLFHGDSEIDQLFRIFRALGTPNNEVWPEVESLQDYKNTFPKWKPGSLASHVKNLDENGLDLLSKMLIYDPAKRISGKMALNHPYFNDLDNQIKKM
Chain of Cyclin-dependent kinase 1/cyclin B1 (Homo sapiens) (P14635 whole entry, looked up, the tested form may be a part): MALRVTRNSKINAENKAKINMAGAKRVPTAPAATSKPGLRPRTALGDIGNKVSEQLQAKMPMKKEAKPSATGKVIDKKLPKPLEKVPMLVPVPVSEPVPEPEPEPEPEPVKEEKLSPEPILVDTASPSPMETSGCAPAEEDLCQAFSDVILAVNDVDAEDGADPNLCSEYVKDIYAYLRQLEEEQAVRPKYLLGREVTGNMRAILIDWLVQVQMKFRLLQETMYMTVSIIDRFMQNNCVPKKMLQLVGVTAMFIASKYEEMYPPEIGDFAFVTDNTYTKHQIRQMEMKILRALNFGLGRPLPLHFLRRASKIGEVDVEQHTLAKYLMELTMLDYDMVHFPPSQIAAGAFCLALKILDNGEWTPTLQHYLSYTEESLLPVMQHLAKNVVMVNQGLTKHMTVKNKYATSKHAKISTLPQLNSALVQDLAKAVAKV
Assay [2] has as its target Insulin receptor (Homo sapiens) (UniProt P06213). The assay can be described thus: Inhibition of recombinant human GST-tagged InsR (1011 to 1382 residues) expressed in baculovirus expression system using Tyr 01 as substrate at 0.1 uM incubated for 60 mins by Z'-lyte assay relative to control.
Assay [3] deals with Tyrosine-protein kinase Yes (Homo sapiens) (UniProt P07947). Put plainly: Inhibition of recombinant human GST-tagged full length YES expressed in baculovirus expression system using Tyr 02 as substrate at 0.1 uM incubated for 60 mins by Z'-Lyte assay relative to control.
Chain of Tyrosine-protein kinase Yes (Homo sapiens) (P07947 2-543 limits assumed): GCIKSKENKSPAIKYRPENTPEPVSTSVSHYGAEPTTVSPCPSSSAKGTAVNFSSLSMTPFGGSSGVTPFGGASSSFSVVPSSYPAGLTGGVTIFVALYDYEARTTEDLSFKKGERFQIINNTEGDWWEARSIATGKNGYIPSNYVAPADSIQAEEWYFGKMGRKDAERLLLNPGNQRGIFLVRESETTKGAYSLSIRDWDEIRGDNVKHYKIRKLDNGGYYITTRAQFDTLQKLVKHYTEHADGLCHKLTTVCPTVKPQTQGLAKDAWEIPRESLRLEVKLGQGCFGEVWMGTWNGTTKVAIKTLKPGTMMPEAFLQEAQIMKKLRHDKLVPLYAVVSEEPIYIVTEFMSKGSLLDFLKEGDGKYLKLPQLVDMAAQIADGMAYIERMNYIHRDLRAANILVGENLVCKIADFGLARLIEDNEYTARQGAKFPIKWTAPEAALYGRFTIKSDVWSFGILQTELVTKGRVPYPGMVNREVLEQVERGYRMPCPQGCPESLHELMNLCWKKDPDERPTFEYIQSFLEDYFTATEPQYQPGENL
The target in a further assay is Janus Kinase (JAK) (Homo sapiens, UniProt P52333+P23458+O60674+P29597). The following applies: beas-2b.
In assay [4] the target is Casein kinase I isoform alpha (Homo sapiens) (UniProt P48729). Put plainly: Inhibition of recombinant human GST-tagged full length CK1alpha1 expressed in baculovirus expression system using Ser/Thr 11 as substrate at 0.1 uM incubated for 60 mins by Z'-Lyte assay relative to control.
Chain of Casein kinase I isoform alpha (Homo sapiens) (P48729 2-337 limits assumed): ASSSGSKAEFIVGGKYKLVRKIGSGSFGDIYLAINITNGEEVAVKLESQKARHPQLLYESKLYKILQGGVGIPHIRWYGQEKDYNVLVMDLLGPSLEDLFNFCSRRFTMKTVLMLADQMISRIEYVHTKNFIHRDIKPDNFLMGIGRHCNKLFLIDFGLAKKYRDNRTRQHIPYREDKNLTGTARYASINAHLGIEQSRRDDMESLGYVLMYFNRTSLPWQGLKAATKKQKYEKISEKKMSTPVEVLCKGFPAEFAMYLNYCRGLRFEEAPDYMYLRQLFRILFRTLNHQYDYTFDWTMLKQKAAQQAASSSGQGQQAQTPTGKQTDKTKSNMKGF
Assay [5] deals with Macrophage colony-stimulating factor 1 receptor (Homo sapiens) (UniProt P07333). Put plainly: Inhibition of recombinant human His-tagged CSF1R (538 to 910 residues) expressed in baculovirus expression system using Tyr 01 as substrate at 0.1 uM incubated for 60 mins by Z'-Lyte assay relative to control.
Chain of Macrophage colony-stimulating factor 1 receptor (Homo sapiens) (P07333 whole entry, the tested form may be a part): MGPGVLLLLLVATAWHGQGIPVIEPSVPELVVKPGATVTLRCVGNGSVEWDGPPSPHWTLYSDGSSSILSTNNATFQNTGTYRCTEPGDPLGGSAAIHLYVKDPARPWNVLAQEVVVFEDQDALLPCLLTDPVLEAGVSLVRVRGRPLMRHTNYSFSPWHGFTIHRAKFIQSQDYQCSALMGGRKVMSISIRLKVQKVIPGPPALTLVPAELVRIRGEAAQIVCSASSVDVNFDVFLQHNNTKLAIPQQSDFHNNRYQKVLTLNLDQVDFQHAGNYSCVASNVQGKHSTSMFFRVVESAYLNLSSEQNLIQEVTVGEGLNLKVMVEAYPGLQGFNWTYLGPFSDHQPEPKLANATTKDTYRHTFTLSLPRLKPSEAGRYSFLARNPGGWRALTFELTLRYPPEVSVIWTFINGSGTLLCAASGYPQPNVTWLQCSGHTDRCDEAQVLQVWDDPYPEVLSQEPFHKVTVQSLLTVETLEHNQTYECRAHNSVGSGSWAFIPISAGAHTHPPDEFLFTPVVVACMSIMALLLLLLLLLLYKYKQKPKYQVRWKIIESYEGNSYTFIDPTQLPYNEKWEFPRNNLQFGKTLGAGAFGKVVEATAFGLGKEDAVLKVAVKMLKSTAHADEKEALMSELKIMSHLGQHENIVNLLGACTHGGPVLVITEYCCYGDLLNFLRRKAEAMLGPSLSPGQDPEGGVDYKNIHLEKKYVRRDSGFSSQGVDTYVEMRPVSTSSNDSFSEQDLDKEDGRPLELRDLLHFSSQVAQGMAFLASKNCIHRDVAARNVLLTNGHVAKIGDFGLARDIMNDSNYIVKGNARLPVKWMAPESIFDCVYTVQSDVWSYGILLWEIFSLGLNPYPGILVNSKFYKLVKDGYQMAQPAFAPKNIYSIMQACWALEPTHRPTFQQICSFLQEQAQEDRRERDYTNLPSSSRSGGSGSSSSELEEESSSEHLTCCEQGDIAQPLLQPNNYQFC
Assay [6] concerns the target Protein kinase C beta type (Homo sapiens) (UniProt P05771). Put plainly: Inhibition of recombinant human GST-tagged full length PKCbeta2 expressed in insect expression system using Ser/Thr 07 as substrate at 0.1 uM incubated for 60 mins by Z'-lyte assay relative to control.
Assay [7] addresses RAC-alpha serine/threonine-protein kinase (Homo sapiens) (UniProt P31749). Put plainly: Inhibition of recombinant human His-tagged full length AKT1 expressed in baculovirus expression system using Ser/Thr 06 as substrate at 0.1 uM incubated for 60 mins by Z'-Lyte assay relative to control.
Assay [8] addresses T1, G protein-coupled receptor kinase 3 (Homo sapiens) (UniProt P35626).
T1 sequence (whole entry): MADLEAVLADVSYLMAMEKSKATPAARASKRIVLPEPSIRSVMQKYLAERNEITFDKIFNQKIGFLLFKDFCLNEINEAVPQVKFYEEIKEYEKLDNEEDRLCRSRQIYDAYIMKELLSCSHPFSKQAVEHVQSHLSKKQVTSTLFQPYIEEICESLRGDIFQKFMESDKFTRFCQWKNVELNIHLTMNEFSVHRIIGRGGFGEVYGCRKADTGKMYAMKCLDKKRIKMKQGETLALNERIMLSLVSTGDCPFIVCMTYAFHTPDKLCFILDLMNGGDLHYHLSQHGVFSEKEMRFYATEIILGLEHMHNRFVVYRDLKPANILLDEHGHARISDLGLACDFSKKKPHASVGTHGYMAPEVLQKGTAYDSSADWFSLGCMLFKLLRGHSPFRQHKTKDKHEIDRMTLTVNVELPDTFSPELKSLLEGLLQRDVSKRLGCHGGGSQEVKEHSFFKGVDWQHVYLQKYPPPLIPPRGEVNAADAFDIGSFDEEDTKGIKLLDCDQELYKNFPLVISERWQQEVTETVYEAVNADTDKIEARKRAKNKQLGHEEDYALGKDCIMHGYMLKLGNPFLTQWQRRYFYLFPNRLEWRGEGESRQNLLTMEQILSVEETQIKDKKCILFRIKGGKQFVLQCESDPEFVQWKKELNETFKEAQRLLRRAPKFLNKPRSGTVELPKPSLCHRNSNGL
The assay can be described thus: Inhibition of recombinant human GST-tagged full length GRK3 expressed in baculovirus expression system using Ser/Thr 16 as substrate at 0.1 uM incubated for 60 mins by Z'-Lyte assay relative to control.

For assay [9], the target named is Ribosomal protein S6 kinase alpha-5 (Homo sapiens) (UniProt O75582). The assay can be described thus: Inhibition of recombinant human GST-tagged full length MSK1 expressed in baculovirus expression system using Ser/Thr 01 as substrate at 0.1 uM incubated for 60 mins by Z'-lyte assay relative to control.

Chain of RAC-alpha serine/threonine-protein kinase (Homo sapiens) (P31749 whole entry): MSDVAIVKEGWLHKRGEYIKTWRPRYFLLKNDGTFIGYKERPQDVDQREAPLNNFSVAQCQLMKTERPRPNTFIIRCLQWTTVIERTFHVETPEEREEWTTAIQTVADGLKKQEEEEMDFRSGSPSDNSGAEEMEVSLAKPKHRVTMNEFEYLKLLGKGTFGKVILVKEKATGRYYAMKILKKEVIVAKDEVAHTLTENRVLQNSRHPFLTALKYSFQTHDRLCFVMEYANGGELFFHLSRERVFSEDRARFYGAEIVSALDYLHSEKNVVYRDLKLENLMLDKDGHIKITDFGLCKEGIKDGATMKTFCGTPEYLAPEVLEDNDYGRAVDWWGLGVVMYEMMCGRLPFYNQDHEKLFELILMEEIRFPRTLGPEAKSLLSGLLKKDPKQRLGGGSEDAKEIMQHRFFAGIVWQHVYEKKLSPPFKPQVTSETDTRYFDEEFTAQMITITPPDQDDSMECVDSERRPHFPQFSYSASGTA
Chain of Insulin receptor (Homo sapiens) (P06213 28-758 limits assumed): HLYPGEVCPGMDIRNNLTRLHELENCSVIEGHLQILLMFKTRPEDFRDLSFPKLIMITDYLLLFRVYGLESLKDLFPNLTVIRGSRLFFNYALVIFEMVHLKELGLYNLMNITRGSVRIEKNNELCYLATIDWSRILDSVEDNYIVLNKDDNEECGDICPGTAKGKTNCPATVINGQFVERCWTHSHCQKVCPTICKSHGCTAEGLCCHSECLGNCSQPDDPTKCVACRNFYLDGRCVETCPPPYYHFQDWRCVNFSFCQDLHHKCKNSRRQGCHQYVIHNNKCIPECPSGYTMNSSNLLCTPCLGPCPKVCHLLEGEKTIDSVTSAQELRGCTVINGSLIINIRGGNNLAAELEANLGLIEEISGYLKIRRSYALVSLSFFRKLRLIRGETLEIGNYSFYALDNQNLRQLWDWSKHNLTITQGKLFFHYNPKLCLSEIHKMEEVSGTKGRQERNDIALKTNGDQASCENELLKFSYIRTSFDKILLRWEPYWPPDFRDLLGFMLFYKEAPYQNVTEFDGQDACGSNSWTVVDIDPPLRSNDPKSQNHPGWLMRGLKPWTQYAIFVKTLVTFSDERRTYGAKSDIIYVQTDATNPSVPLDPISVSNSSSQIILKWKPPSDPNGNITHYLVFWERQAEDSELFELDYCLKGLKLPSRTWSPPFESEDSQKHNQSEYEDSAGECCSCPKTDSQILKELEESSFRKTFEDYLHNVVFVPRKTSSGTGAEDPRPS
Chain of Insulin receptor (Homo sapiens) (P06213 763-1382 limits assumed): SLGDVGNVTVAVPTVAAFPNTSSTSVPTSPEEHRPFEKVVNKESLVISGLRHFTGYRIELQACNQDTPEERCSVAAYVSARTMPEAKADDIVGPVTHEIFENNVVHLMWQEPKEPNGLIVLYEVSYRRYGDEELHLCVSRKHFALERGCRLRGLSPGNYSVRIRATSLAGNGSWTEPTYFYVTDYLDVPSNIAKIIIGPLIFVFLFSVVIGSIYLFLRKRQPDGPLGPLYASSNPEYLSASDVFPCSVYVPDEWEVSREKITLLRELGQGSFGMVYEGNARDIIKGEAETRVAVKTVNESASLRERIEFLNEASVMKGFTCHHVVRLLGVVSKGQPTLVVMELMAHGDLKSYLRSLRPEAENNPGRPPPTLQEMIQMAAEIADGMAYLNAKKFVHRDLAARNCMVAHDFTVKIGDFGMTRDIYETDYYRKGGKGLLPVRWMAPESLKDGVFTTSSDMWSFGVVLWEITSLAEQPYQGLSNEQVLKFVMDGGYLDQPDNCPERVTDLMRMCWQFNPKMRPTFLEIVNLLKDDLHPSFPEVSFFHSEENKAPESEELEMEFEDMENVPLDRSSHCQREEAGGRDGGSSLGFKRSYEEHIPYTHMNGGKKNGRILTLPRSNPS
Description for Janus Kinase (JAK): Inhibition of JAK in human BEAS-2B cells assessed as reduction in IL13-induced STAT6 phosphorylation incubated for 1 hr followed by IL13 addition and measured after 15 mins by immunofluorescence assay

Take `Cn1cc(NC(=O)c2cnn3cccnc23)c(-c2cc(Cl)ccc2OC(F)F)n1`: the inhibition in assay [1] stood at 4%; in assay [2], 4%; in assay [3], 30%; in assay [4] it was 6%; in assay [5], 29%; in assay [6], 12%. In addition, the inhibition in [7] was -6%; in assay [8], 3%; in assay [9], 5%. Moreover, the Ratio IC50 in the assay listed under Homo sapiens came to 47. The molecule further came in with an IC50 against Janus Kinase (JAK) of 4.7 nM.
Turning to `O=C(Nc1c[nH]nc1-c1cc2ccccc2cc1OC(F)F)c1cnn2cccnc12`, the inhibition in [1] was 27%; in [2] it was -8%; in [3] it was 33%; in [4], -1%; in [5] it was -3%; in [6], 17%. Besides, the inhibition in [7] was -5%; in [8], 1%; in assay [9], -2%. Besides, in the assay filed under Homo sapiens, the Ratio IC50 stood at 83. Besides, the IC50 on Janus Kinase (JAK) is recorded as 6.4 nM.
Take `O=C(Nc1c[nH]nc1-c1cc(Cl)ccc1OC(F)F)c1cnn2cccnc12`: the inhibition came out at 53% in assay [1]; 6% in assay [2]; 32% in [3]; 10% in assay [4]; 6% in assay [5]; 21% in [6]. Also, the figures for the inhibition in assay [7], in assay [8] and in assay [9] were 1%, -1% and 3%, respectively. In the assay listed under Homo sapiens, the Ratio IC50 turned out to be 15. The IC50 against Janus Kinase (JAK) stood at 5.2 nM.
